The subject of this assay is C3A cells. Nature of the assay: APAP-induced hepatotoxicity IC50 measurement with robotic liquid handler. It counts as cell-based. The settings on record: Homo sapiens. Here is the method:
Using the human liver cancer cell line C3A, cultured in the bioreactor, IC50 value measurements were conducted with a robotic liquid handler (FIG. 16).

By IC50 is commonly meant the concentration at which inhibition is half-maximal. A low value points to greater potency in that assay. For the molecule `CC(=O)Nc1ccc(O)cc1` [APAP, acetaminophen], the IC50 amounted to 80 mM (C3A cells cultured in Si3N4—SC (static)), 71 mM (C3A cells cultured in Si3N4—SCP (Si3N4 sandwich perfusion in 96-well bioreactor)) and 84.6 mM (C3A cells cultured in collagen gel sandwich (static)).

Values taken from patent publication US8617879B2, “Apparatus for cell or tissue culture” (Agency for Science, Technology and Research, priority 2009, dated 2013).
